Patent USRE39593E1 (Gruenenthal GmbH, priority 1994, dated 2007)
Where a name gives a salt, the structure may show the parent alone.

Tested on: phenylquinone-induced writhing reaction
Assay: Phenylquinone-induced writhing test on mice
Assay type: in vivo
Settings: Mus musculus, male NMRI mice; 25 mg/kg per os, 30 min before phenylquinone i.p.
Protocol: The analgesic effectiveness of the compounds according to the invention was investigated in the phenylquinone-induced writhing test, modified according to I. C. Hendershot, J. Forsaith in J. Pharmacol. Exptl. Ther. 125, 237 (1959), on mice. Male NMRI mice with a weight between 25 and 30 g were used for this purpose. For each dose of substance, each 10 animals received, 30 minutes after the oral administration of a compound according to the invention, 0.3 ml per mouse of an 0.02% aqueous phenylquinone solution (phenylbenzoquinone manufactured by Sigma, Deisenhofen; solution prepared with the addition of 5% ethanol and kept on a water bath at 45° C.) administered intraperitoneally. Thereafter the animals were placed individually in observation cages. The number of pain-induced stretching movements (writhing reaction-straightening of the body with stretching of the rear extremities) was counted with the aid of a push-button counter. The Ed50 value (effective dose with 50% inhibition of writhing reaction) was calculated with a 95% confidence limit by means of regression analysis (evaluation program supplied by Martens EDV-Service, Eckental) from the dose-dependent decrease in the writhing reaction, by comparison with mice tested in parallel to which only phenylquinone had been administered.

`CC[C@](O)(c1cccc(OC(C)C)c1)[C@H](C)CN(C)C` (racemic) [(3), (2RS,3RS)-3-(3-isopropoxyphenyl)-1-dimethylamino-2-methylpentan-3-ol Hydrochloride] was tested. Which inhibition at 25 mg/kg did it give?
The inhibition at 25 mg/kg was 81.3%.

For `CC[C@](O)(c1cccc(O)c1)[C@H](C)CN(C)C` (racemic) [(16), (2RS,3RS)-3-(3-dimethylamino-1-ethyl-1-hydroxy-2-methylpropyl)-phenol Hydrochloride], which inhibition at 25 mg/kg is on record?
Its inhibition at 25 mg/kg is 100%.

For `COc1cccc([C@](C)(O)[C@H](C)CN(C)C)c1` [(+15), Hydrochloride], which inhibition at 25 mg/kg is on record?
The inhibition at 25 mg/kg was 95.2%.

Which inhibition at 25 mg/kg does the source give for `C[C@H](CN(C)C)[C@@](C)(O)c1cccc(O)c1` [(+17), (+)-(1R,2R)-3-(3-dimethylamino-1-hydroxy-1,2-dimethylpropyl)-phenolhydrochloride] here?
The inhibition at 25 mg/kg was 97.2%.

Which inhibition at 25 mg/kg does the source give for `C[C@@H](CN(C)C)[C@](C)(O)c1cccc(O)c1` [(−17), (−)-(1S,2S)-3-(3-dimethylamino-1-hydroxy-1,2-dimethylpropyl)-phenol Hydrochloride] here?
Its inhibition at 25 mg/kg is 58.3%.

Same assay, conditions: Mus musculus; male NMRI mice; oral administration 30 min before phenylquinone i.p.; dose with 50% inhibition of writhing reaction

For `CC[C@](O)(c1cccc(OC)c1)[C@H](C)CN(C)C.Cl` (racemic) [(1), (2RS,3RS)-1-dimethylamino-3-(3-methoxyphenyl)-2-methylpentan-3-ol Hydrochloride], which ED50 is on record?
Its ED50 is 5.8 mg/kg.

`CC[C@](O)(c1ccc(Cl)c(Cl)c1)[C@H](C)CN(C)C.Cl` (racemic) [(2), (2RS,3RS)-3-(3,4-dichlorophenyl)-1-dimethylamino-2-methylpentan-3-ol Hydrochloride] was tested. Which ED50 did it give?
The ED50 was 13.2 mg/kg.

Which ED50 does the source give for `CC[C@](O)(c1cccc(Cl)c1)[C@H](C)CN(C)C.Cl` (racemic) [(4), (2RS,3RS)-3-(3-chlorophenyl)-1-dimethylamino-2-methylpentan-3-ol Hydrochloride] here?
Its ED50 is 15.5 mg/kg.

For `CC[C@](O)(c1cccc(C(F)(F)F)c1)[C@H](C)CN(C)C.Cl` (racemic) [(5), (2RS,3RS)-1-dimethylamino-2-methyl-3-(3-trifluoromethylphenyl)-pentan-3-ol Hydrochloride], which ED50 is on record?
Its ED50 is 8.3 mg/kg.

For `CC[C@](O)(c1cccc(C)c1)[C@H](C)CN(C)C.Cl` (racemic) [(6), (2RS,3RS)-1-dimethylamino-2-methyl-3-(3-m-tolyl)-pentan-3-ol Hydrochloride], which ED50 is on record?
The ED50 was 11.8 mg/kg.

For `CC[C@](O)(c1cccc(F)c1)[C@H](C)CN(C)C.Cl` (racemic) [(7), (2RS, 3RS)-1-dimethylamino-3-(3-fluorophenyl)-2-methylpentan-3-ol Hydrochloride], which ED50 is on record?
Its ED50 is 27.3 mg/kg.

`CC[C@](O)(c1cccc(C(F)F)c1)[C@H](C)CN(C)C.Cl` (racemic) [(8), (2RS,3RS)-3-(3-difluoromethylphenyl)-1-dimethylamino-2-methylpentan-3-ol Hydrochloride] was tested. Which ED50 did it give?
Its ED50 is 12.9 mg/kg.

How did the ED50 turn out when `CC[C@](O)(c1cccc(SC)c1)[C@H](C)CN(C)C.Cl` (racemic) [(9), (2RS,3RS)-1-dimethylamino-2-methyl-3-(3-methylsulphanylphenyl)-pentan-3-ol Hydrochloride] was run?
The ED50 was 12.8 mg/kg.

For `CC[C@](O)(c1ccc2ccoc2c1)[C@H](C)CN(C)C.Cl` (racemic) [(10), (2RS,3RS)-3-benzofuran-6-yl-1-dimethylamino-2-methylpentan-3-ol Hydrochloride], which ED50 is on record?
The ED50 was 12.9 mg/kg.

Which ED50 does the source give for `CCCC(O)(CCN(C)C)c1cccc(OC)c1.Cl` (racemic) [(12), (3RS)-1-dimethylamino-3-(3-methoxyphenyl)-hexan-3-ol Hydrochloride] here?
The ED50 was 19.9 mg/kg.

`COc1cccc(C(O)(CCN(C)C)C(C)(C)C)c1.Cl` (racemic) [(14), (3RS)-1-dimethylamino-3-(3-methoxyphenyl)-4,4-dimethylpentan-3-ol Hydrochloride] was tested. Which ED50 did it give?
Its ED50 is 10.5 mg/kg.

How did the ED50 turn out when `COc1cccc([C@](C)(O)[C@H](C)CN(C)C)c1` (racemic) [(15), Hydrochloride] was run?
The ED50 was 3.8 mg/kg.

Which ED50 does the source give for `CC[C@](O)(c1cccc(OC)c1)[C@H](C)CN(C)C` [(+1), (+)-(2R,3R)-1-dimethylamino-3-(3-methoxyphenyl)-2-methylpentan-3-ol Hydrochloride] here?
Its ED50 is 1.1 mg/kg.

`CC[C@](O)(c1cccc(O)c1)[C@H](C)CN(C)C` [(+16), (+) (2S,3S 1R,2R)-3-(dimethylamino-1-ethyl-1-hydroxy-2-methylpropyl)-phenol Hydrochloride] was tested. Which ED50 did it give?
The ED50 was 1 mg/kg.

How did the ED50 turn out when `CC[C@](F)(c1cccc(O)c1)[C@H](C)CN(C)C.Cl` [(+18), (+)-(1R,2R)-3-(3-dimethylamino-1-ethyl-1-fluoro-2-methylpropyl)-phenol Hydrochloride] was run?
The ED50 was 15.7 mg/kg.

For `CC[C@H](c1cccc(O)c1)[C@H](C)CN(C)C.Cl` [(+21), (+)-(1S,2R 2S)-3-(3-dimethylamino-1-ethyl-2-methylpropyl)-phenol hydrochloride], which ED50 is on record?
The ED50 was 1.9 mg/kg.

For `CC[C@@](O)(c1cccc(OC)c1)[C@@H](C)CN(C)C` [(−1), (−)-(2S,3S)-1-dimethylamino-3-(3-methoxyphenyl)-2-methylpentan-3-ol Hydrochloride], which ED50 is on record?
Its ED50 is 22.3 mg/kg.

With `CC[C@@](O)(c1cccc(O)c1)[C@@H](C)CN(C)C` [(−16), (-) (2S,3S) 1S,2S)-3-(dimethylamino-1-ethyl-1-hydroxy-2-methylpropyl)-phenol Hydrochloride] as the compound, how does the ED50 read?
Its ED50 is 16.1 mg/kg.
